Data as given in US7179920B2, “3-thia-4-arylquinolin-2-one derivatives” (Bristol-Myers Squibb Company, priority 2003, dated 2007).

Columns and labels:
[1] = tested on: cloned mammalian (mSlo or hSlo) BK (Maxi-K) channel; assay: Assay for BK channel openers: two-electrode voltage clamp of BK-mediated outward current in Xenopus oocytes; type: cell-based; settings: voltage step to +140 mV
From the text: The experimental media (modified Barth's solution) consisted of millimolar (“mM”): NaCl (88), NaHCO3 (2.4), KCl (1.0), HEPES (10), MgSO4 (0.82), Ca(NO3)2 (0.33), CaCl2 (0.41); pH 7.5.

[2] = tested on: rabbit corpus cavernosum tissue; assay: Rabbit corpus cavernosum strips: relaxation of phenylephrine-induced force; settings: Oryctolagus cuniculus; inhibition of phenylephrine (3 μM)-induced force as compared to vehicle control; read-out: % Inhibition of force (RCC strips)
Experimental: The ability of the compounds of the invention to relax rabbit corpus cavernosum tissue as a model for the treatment of erectile dysfunction is described as follows. New Zealand white rabbits (3.4–3.7 kg) were euthanized by sodium pentobarbital (100 mg/kg) overdose. The penis from each animal was rapidly removed and immersed in a cold oxygenated modified Krebs Henseleit bicarbonate buffer. The penis' outer tunica was removed and the corpus cavernosum smooth muscle obtained and cut into strips approximately 3–5 mm long. The strips were suspended in tissue baths containing physiological salt solution (see above), and allowed to equilibrate for at least one hour under resting tension of 1.0 gram. Isometric force was measured as described above. Tissue strips were stimulated with the α-agonist phenylephrine (3 μM) and allowed to reach a steady level of force prior to the addition of test compounds. The results are expressed as the percentage inhibition of phenylephrine-induced force as compared to vehicle control.

[3] = tested on: rat small intestine tissue; assay: Rat small intestine (ileum) strips: inhibition of nifedipine-sensitive force; settings: integral of nifedipine-sensitive force, 30 min post-compound
From the text: The ability of the compounds of the invention to relax rat small intestine tissue as a model for the treatment of irritable bowel syndrome is described as follows. Male rats (Harlan, Sprague Dawley, 250–350 g) were sacrificed by decapitation. A portion of small intestine (ileum) was removed and the attached connective tissues and intestinal contents removed. The ileum was cut into segments of ≦1 cm in length. The segments were mounted longitudinally between fixed hooks in organ baths containing warm (37° C.) physiological salt solution (composition in mM: NaCl 118.4, KCl 4.7, KH2PO4 1.2, MgSO4 1.2, CaCl2 1.8, Glucose 10.1, NaHCO3 25; gassed with 95% O2/5% CO2, pH 7.4). A stable tension of ˜1.5 g was maintained in the tissue segments during the equilibration period of 45 minutes. Changes in muscle tension were measured with isometric force transducers (Grass, FT-03C) and recorded using AcqKnowledge data acquisition system (AcqKnowledge for MP100WS, Biopac Systems Inc., Goleta, Calif.). Compound or vehicle was added in the baths for 30 minutes. “Zero” active force was established at the end of the experiment using nifedipine (20 μM). The effects of compounds or vehicle on force was determined by measuring the integral of nifedipine-sensitive force (including resting tone and spontaneous contractions) pre- and 30 min post-compound (or vehicle) addition. Results are expressed as the percentage inhibition of force. DMSO vehicle inhibited force (integral) by −0.6±3.0% (n=25).

[4] = at 1 μM, percent increase over BK current in controls
[5] = at 20 μM, percent increase over BK current in controls

Structure (SMILES)	melting point	% MaxiK opening [1, 5]	inhibition [2]	other results
COc1ccc(Cl)cc1-c1c(S)c(=O)[nH]c2ccc(C(F)(F)F)cc12 [Example 9, 4-(5-Chloro-2-methoxyphenyl)-3-mercapto-6-trifluoromethyl-1H-quinolin-2-one]	239 to 241 °C			% MaxiK opening [1, 4]: 149^⋄ %
COc1ccc(Cl)cc1-c1c(SCC(O)CO)c(=O)[nH]c2ccc(C(F)(F)F)cc12 (centres unmarked) [Example 20, 4-(5-Chloro-2-methoxyphenyl)-3-(2,3-dihydroxypropylsulfanyl)-6-trifluoromethyl-1H-quinolin-2-one]	110 to 114 °C	178%		
NC(=O)NCCSc1c(-c2cc(Cl)ccc2O)c2cc(C(F)(F)F)ccc2[nH]c1=O [Example 5, 1-{2-[4-(5-Chloro-2-hydroxy-phenyl)-2-oxo-6-trifluoromethyl-1,2-dihydro-quinolin-3-ylsulfanyl]-ethyl}urea]		165%	65%	% Inhibition of force (RSI strips) [3]: 21%
O=c1[nH]c2ccc(C(F)(F)F)cc2c(-c2cc(Cl)ccc2O)c1SCC(O)CO (racemic) [Example 17, (±)-4-(5-Chloro-2-hydroxyphenyl)-3-(2,3-dihydroxypropylsulfanyl)-6-trifluoromethyl-1H-quinolin-2-one]	178 to 180 °C	246%	31%	% Inhibition of force (RSI strips) [3]: 6%
COc1ccc(Cl)cc1-c1c(SCCNC(N)=O)c(=O)[nH]c2ccc(C(F)(F)F)cc12 [Example 4, 1-{2-[4-(5-Chloro-2-methoxy-phenyl)-2-oxo-6-trifluoromethyl-1,2-dihydro-quinolin-3-ylsulfanyl]-ethyl}urea]		140%		
N#CCCCSc1c(-c2cc(Cl)ccc2O)c2cc(C(F)(F)F)ccc2[nH]c1=O [Example 13, 4-[4-(5-Chloro-2-hydroxyphenyl)-2-oxo-6-trifluoromethyl-1,2-dihydro-quinolin-3-ylsulfanyl]butyronitrile]	217 °C	198%		
O=c1[nH]c2ccc(C(F)(F)F)cc2c(-c2cc(Cl)ccc2O)c1SC[C@@H](O)CO [Example 18, (S)-4-(5-Chloro-2-hydroxyphenyl)-3-(2,3-dihydroxypropylsulfanyl)-6-trifluoromethyl-1H-quinolin-2-one]		223%	45%	
COc1ccc(Cl)cc1-c1c(SCCCO)c(=O)[nH]c2ccc(C(F)(F)F)cc12 [Example 15, 4-(5-Chloro-2-methoxyphenyl)-3-(3-hydroxypropylsulfanyl)-6-trifluoromethyl-1H-quinolin-2-one]	211 °C	140%		
COc1ccc(Cl)cc1-c1c(SCC(=O)O)c(=O)[nH]c2ccc(C(F)(F)F)cc12 [Example 1]	235 °C	155%	14%	
O=c1[nH]c2ccc(C(F)(F)F)cc2c(-c2cc(Cl)ccc2O)c1SC[C@H](O)CO [Example 19, (R)-4-(5-Chloro-2-hydroxyphenyl)-3-(2,3-dihydroxypropylsulfanyl)-6-trifluoromethyl-1H-quinolin-2-one]		256%	41%	
COc1ccc(Cl)cc1-c1c(SCCO)c(=O)[nH]c2ccc(C(F)(F)F)cc12 [Example 16, 4-(5-Chloro-2-methoxyphenyl)-3-(2-hydroxyethylsulfanyl)-6-trifluoromethyl-1H-quinolin-2-one]	98 to 100 °C	149%		
COCCSc1c(-c2cc(Cl)ccc2O)c2cc(C(F)(F)F)ccc2[nH]c1=O [Example 12, 4-(5-Chloro-2-hydroxyphenyl)-3-(2-methoxyethylsulfanyl)-6-trifluoromethyl-1H-quinolin-2-one]				% MaxiK opening [1, 4]: 208^⋄ %
CCNC(=O)NCCSc1c(-c2cc(Cl)ccc2O)c2cc(C(F)(F)F)ccc2[nH]c1=O [Example 7, 1-{2-[4-(5-Chloro-2-hydroxy-phenyl)-2-oxo-6-trifluoromethyl-1,2-dihydro-quinolin-3-ylsulfanyl]-ethyl}-3-ethyl-urea]				% MaxiK opening ([1]; marked ⋄⋄ (concentration footnote not given)): 160^⋄⋄ %
N#CCCSc1c(-c2cc(Cl)ccc2O)c2cc(C(F)(F)F)ccc2[nH]c1=O [Example 11, 3-[4-(5-Chloro-2-hydroxyphenyl)-2-oxo-6-trifluoromethyl-1,2-dihydro-quinolin-3-ylsulfanyl]propionitrile]	140 °C	189%		
CCNC(=O)NCCSc1c(-c2cc(Cl)ccc2OC)c2cc(C(F)(F)F)ccc2[nH]c1=O [Example 3, 1-{2-[4-(5-Chloro-2-methoxy-phenyl)-2-oxo-6-trifluoromethyl-1,2-dihydro-quinolin-3-ylsulfanyl]-ethyl}-3-ethyl-urea]		123%		% Inhibition of force (RSI strips) [3]: 17b %
COc1ccc(Cl)cc1-c1c(S/C=C/CO)c(=O)[nH]c2ccc(C(F)(F)F)cc12 [Example 21]	148 to 150 °C			% MaxiK opening [1, 4]: 135^⋄ %
CNC(=O)NCCSc1c(-c2cc(Cl)ccc2O)c2cc(C(F)(F)F)ccc2[nH]c1=O [Example 6, 1-{2-[4-(5-Chloro-2-hydroxy-phenyl)-2-oxo-6-trifluoromethyl-1,2-dihydro-quinolin-3-ylsulfanyl]-ethyl}-3-methyl-urea]		176%		
O=c1[nH]c2ccc(C(F)(F)F)cc2c(-c2cc(Cl)ccc2O)c1S [Example 8, 4-(5-Chloro-2-hydroxyphenyl)-3-mercapto-6-trifluoromethyl-1H-quinolin-2-one]		197%		
O=c1[nH]c2ccc(C(F)(F)F)cc2c(-c2cc(Cl)ccc2O)c1SCCO [Example 10, 4-(5-Chloro-2-hydroxyphenyl)-3-(2-hydroxyethylsulfanyl)-6-trifluoromethyl-1H-quinolin-2-one]	278 to 279 °C	348%	43%	
O=c1[nH]c2ccc(C(F)(F)F)cc2c(-c2cc(Cl)ccc2O)c1SCCCO [Example 14, 4-(5-Chloro-2-hydroxyphenyl)-3-(3-hydroxypropylsulfanyl)-6-trifluoromethyl-1H-quinolin-2-one]	178 to 180 °C	242%	23%	
